Values joined by “and” are separate entries in the source; they are usually repeats but may differ in a detail not shown here. Equal values may be shown once. Where a name gives a salt, the structure may show the parent alone. Read-outs that look alike come from different tables or passages of the source.

Drawing on patent US20050137220A1 (Pharmacia Corporation, priority 2003, published 2005), this text covers IC50 for 40 compounds.

For this test, the target named is MK-2 (Homo sapiens, UniProt P49137). Briefly: Determination of MK-2 IC50 (phosphorylation of HSP-peptide, anion exchange resin capture assay). The conditions noted are these: mixture of stereoisomers implied unless otherwise noted. The test is classed as biochemical.
Where [1] appears, read: additional values are replicate IC50 experiments, read-out: MK-2 Avg. IC50.

Chain of MK-2 (P49137 whole entry, species assumed): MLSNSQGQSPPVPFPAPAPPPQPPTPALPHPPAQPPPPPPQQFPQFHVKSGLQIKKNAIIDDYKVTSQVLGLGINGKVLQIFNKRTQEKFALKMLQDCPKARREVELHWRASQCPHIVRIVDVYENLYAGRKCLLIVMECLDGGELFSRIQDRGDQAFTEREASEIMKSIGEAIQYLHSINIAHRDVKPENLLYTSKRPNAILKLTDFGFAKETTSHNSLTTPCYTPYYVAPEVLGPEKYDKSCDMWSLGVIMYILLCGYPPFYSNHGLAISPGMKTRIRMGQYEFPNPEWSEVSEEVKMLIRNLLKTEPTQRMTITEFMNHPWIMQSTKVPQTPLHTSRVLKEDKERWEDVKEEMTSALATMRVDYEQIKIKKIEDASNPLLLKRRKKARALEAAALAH

What is called IC50 is the concentration needed to halve the response being measured. Turning to `C=CCN1CCc2c([nH]c3ccc(OC)cc23)C1C(=O)OC` (stereo not drawn) [Example 225, methyl 2-allyl-6-methoxy-2,3,4,9-tetrahydro-1H-beta-carboline-1-carboxylate], the 50% inhibitory concentration (IC50) under setting [1] was more than 200 µM. Still for that read-out and setting: the figure for `COc1ccc2[nH]c3c(c2c1)CC(CN(C)C)NC3C(=O)O` (stereo not drawn) [Example 187, 3-[(dimethylamino)methyl]-6-methoxy-2,3,4,9-tetrahydro-1H-beta-carboline-1-carboxylic acid trifluoroacetate] is more than 200 µM. On to `O=C1NCCc2c1[nH]c1ccc(F)cc21` [Example 261, 1H-Pyrido[3,4-b]indol-1-one,6-fluoro-2,3,4,9-tetrahydro- or 6-fluoro-2,3,4,9-tetrahydro-1H-beta-carbolin-1-one or 1h-Pyrido[3,4-B]Indol-1-One,6-Fluoro-2,3,4,9-Tetrahydro-], for which the half-inhibitory concentration (IC50) under setting [1] was more than 200 µM. In the case of `COC(=O)C1Cc2c([nH]c3ccccc23)C(C(=O)O)N1` (stereo not drawn) [Example 227, 3-(methoxycarbonyl)-2,3,4,9-tetrahydro-1H-beta-carboline-1-carboxylic acid], the IC50 under setting [1] is more than 200 µM. For `COC(=O)C1(CCl)NCCc2c1[nH]c1ccccc21` (stereo not drawn) [Example 164, methyl 1-(chloromethyl)-2,3,4,9-tetrahydro-1H-beta-carboline-1-carboxylate], under setting [1], the IC50 is more than 200 µM. In the case of `COc1ccc2[nH]c3c(c2c1)C(c1ccccc1)CNC3C(=O)O` (stereo not drawn) [Example 210, 6-methoxy-4-phenyl-2,3,4,9-tetrahydro-1H-beta-carboline-1-carboxylic acid hydrochloride], the half-maximal inhibitory concentration (IC50) under setting [1] was more than 200 µM.

In the case of `O=C(O)COc1ccc2[nH]c3c(c2c1)CCNC3C(=O)O` (stereo not drawn) [Example 98, 6-(carboxymethoxy)-2,3,4,9-tetrahydro-1H-beta-carbolin-1-carboxylic acid], the concentration for half-maximal inhibition (IC50) under setting [1] was found to be 35.5 µM. Take `CCOC(=O)CNC(=O)COc1ccc2[nH]c3c(c2c1)CCNC3C(=O)O` (stereo not drawn) [Example 155, 6-[2-(2-ethoxy-2-oxoethylamino)-2-oxoethoxy]-2,3,4,9-tetrahydro-1H-beta-carboline-1-carboxylic acid hydrochloride]: the IC50 under setting [1] was 164 µM. `COC(=O)C1NC(CO)Cc2c1[nH]c1ccc(OC)cc21` (stereo not drawn) [Example 184, methyl 3-(hydroxymethyl)-6-methoxy-2,3,4,9-tetrahydro-1H-beta-carboline-1-carboxylate]: under setting [1], the half-maximal inhibitory concentration (IC50) was more than 200 µM. For `O=C1NCCc2c1[nH]c1c(Cl)cccc21` [Example 262, 1H-Pyrido[3,4-b]indol-1-one,8-chloro-2,3,4,9-tetrahydro- or 8-chloro-2,3,4,9-tetrahydro-1H-beta-carbolin-1-one], the half-inhibitory concentration (IC50) under setting [1] was more than 200 µM. With `COc1ccc2[nH]c3c(c2c1)CCNC3C(=O)NN` (stereo not drawn) [Example 161, 6-methoxy-2,3,4,9-tetrahydro-1H-beta-carboline-1-carbohydrazide], under setting [1], the 50% inhibitory concentration (IC50) is more than 200 µM. With `COC(=O)C1c2[nH]c3ccc(OC)cc3c2CCN1CCCO[Si](C)(C)C(C)(C)C` (stereo not drawn) [Example 181, methyl 2-(3-{[tert-butyl(dimethyl)silyl]oxy}propyl)-6-methoxy-2,3,4,9-tetrahydro-1H-beta-carboline-1-carboxylate], the concentration for half-maximal inhibition (IC50) under setting [1] was more than 200 µM. With `Cc1ccc2[nH]c3c(c2c1)CCC/C3=N\O` [Example 123, 6-methyl-2,3,4,9-tetrahydro-1H-carbazol-1-one oxime], the 50% inhibitory concentration (IC50) under setting [1] was 82.9 µM and 88.1 µM. The same measure, in the same setting: for `CCOC(=O)CCCOc1ccc2[nH]c3c(c2c1)CCNC3C(=O)O` (stereo not drawn) [Example 130, 6-(4-ethoxy-4-oxobutoxy)-2,3,4,9-tetrahydro-1H-beta-carboline-1-carboxylic acid hydrochloride] the value was 100 µM; for `Cc1ccc2[nH]c3c(c2c1)CCNC3=O` [Example 254, 1h-Pyrido[3,4-B]Indol-1-One,2,3,4,9-Tetrahydro-6-Methyl-], more than 200 µM. Consider `COc1ccc2[nH]c3c(c2c1)CCNC3(CCCC(=O)O)C(=O)O` (stereo not drawn) [Example 179, 1-(3-carboxypropyl)-6-methoxy-2,3,4,9-tetrahydro-1H-beta-carboline-1-carboxylic acid], for which the IC50 under setting [1] was more than 200 µM. As for `COC(=O)c1cccc2c3c([nH]c12)CCCC3=O` [Example 100, methyl 4-oxo-2,3,4,9-tetrahydro-1H-carbazole-8-carboxylate], the IC50 under setting [1] came to 39.8 µM. Consider `O=C(O)C1NCCc2c1[nH]c1ccc(OCc3ccc(Cl)cc3)cc21` (stereo not drawn) [Example 136, 6-[(4-chlorobenzyl)oxy]-2,3,4,9-tetrahydro-1H-beta-carboline-1-carboxylic acid], for which the IC50 under setting [1] was 112 µM. As for `COc1ccc2[nH]c3c(c2c1)C(Cc1ccc(OC(F)(F)F)cc1)CNC3C(=O)O` (stereo not drawn) [Example 185, 6-methoxy-4-[4-(trifluoromethoxy)benzyl]-2,3,4,9-tetrahydro-1H-beta-carboline-1-carboxylic acid], the IC50 under setting [1] was more than 200 µM. Turning to `COc1ccc2[nH]c3c(c2c1)CC(Cc1ccccc1)NC3C(=O)O` (stereo not drawn) [Example 193, 3-benzyl-6-methoxy-2,3,4,9-tetrahydro-1H-beta-carboline-1-carboxylic acid], the concentration for half-maximal inhibition (IC50) under setting [1] was more than 200 µM. The same measure, in the same setting: the figure for `O=C(O)C1NCCc2c1[nH]c1ccc(OCCCc3ccccc3)cc21` (stereo not drawn) [Example 139, 6-(3-phenylpropoxy)-2,3,49-tetrahydro-1H-beta-carboline-1-carboxylic acid] is 117 µM; for `COC(=O)C1c2[nH]c3ccc(OC)cc3c2CCN1CCNC(=O)OC(C)(C)C` (stereo not drawn) [Example 195, methyl 2-{2-[(tert-butoxycarbonyl)amino]ethyl}-6-methoxy-2,3,4,9-tetrahydro-1H-beta-carboline-1-carboxylate] it is more than 200 µM.

For `COc1cccc2c3c([nH]c12)C(C(=O)O)NCC3` (stereo not drawn) [Example 223, 8-methoxy-2,3,4,9-tetrahydro-1H-beta-carboline-1-carboxylic acid trifluoroacetate hydrate], under setting [1], the 50% inhibitory concentration (IC50) is more than 200 µM.

With `CCC(CC)CN1CCc2c([nH]c3ccc(OC)cc23)C1C(=O)O` (stereo not drawn) [Example 197, sodium 2-(2-ethylbutyl)-6-methoxy-2,3,4,9-tetrahydro-1H-beta-carboline-1-carboxylate], under setting [1], the IC50 was more than 200 µM. `COc1ccc2[nH]c3c(c2c1)CCN1CC(C)NC(=O)C31` (stereo not shown) [Example 206, 9-methoxy-3-methyl-3,4,6,7,12,12b-hexahydropyrazino[1′, 2′:1 , 2]pyrido[3,4-b]indol-1(2H)-one]: the IC50 under setting [1] is more than 200 µM. Turning to `CS(=O)(=O)c1ccc(COc2ccc3[nH]c4c(c3c2)CCNC4C(=O)O)cc1` (stereo not drawn) [Example 104, 6-{[4-(methylsulfonyl)benzyl]oxy}-2,3,4,9-tetrahydro-1H-beta-carboline-1-carboxylic acid hydrochloride], the half-maximal inhibitory concentration (IC50) under setting [1] stood at 44.9 µM.

As for `COc1ccc2c3c([nH]c2c1)C(=O)NCC3` [Example 264, 7-methoxy-2,3,4,9-tetrahydro-1H-beta-carbolin-1-one], under setting [1], the IC50 was more than 200 µM. Still for that read-out and setting: the figure for `O=C1NCCc2c1[nH]c1c(Br)cc3c(c21)OCCO3` [Example 256, 6-bromo-2,3,7,9,10,11-hexahydro-8H-[1,4]dioxino[2,3-e]pyrido[3,4-b]indol-8-one] is more than 200 µM; for `COC(=O)C1c2[nH]c3ccc(OC)cc3c2CCN1C(=O)OC(C)(C)C` (stereo not drawn) [Example 234, 2-tert-butyl 1-methyl 6-methoxy-1,3,4,9-tetrahydro-2H-beta-carboline-1,2-dicarboxylate] it is more than 200 µM.

Take `O=C1NCCc2c1[nH]c1c(Cl)ccc(Cl)c21` [Example 252, 5,8-dichloro-2,3,4,9-tetrahydro-1H-beta-carbolin-1-one]: the 50% inhibitory concentration (IC50) under setting [1] was more than 200 µM. On the same count and under the same terms, for `COc1ccc2c3c([nH]c2c1)C(Cc1ccc(OC)c(OC)c1OC)(C(=O)O)NCC3` (stereo not drawn) [Example 203, 7-methoxy-1-[(2,3,4-trimethoxyphenyl)methyl]-2,3,4,9-tetrahydro-1H-beta-carboline-1-carboxylic acid, acetate (1:1)] the value was more than 200 µM. As to `COc1ccc2[nH]c3c(c2c1)CCNC3=S` [Example 97, 6-methoxy-2,3,4,9-tetrahydro-1H-beta-carboline-1-thione], under “MK-2 Avg. IC50, additional values are replicate IC50 experiments”, the concentration for half-maximal inhibition (IC50) is 34.8 µM. For `COc1ccc2[nH]c3c(c2c1)C(c1ccccc1)CNC3C(=O)O` (stereo not drawn) [Example 233, 6-methoxy-4-phenyl-2,3,4,9-tetrahydro-1H-beta-carboline-1-carboxylic acid], under setting [1], the IC50 is more than 200 µM. As to `COC(=O)C12CCC(=O)N1CCc1c2[nH]c2ccc(OC)cc12` (stereo not shown) [Example 162, methyl 8-methoxy-3-oxo-2,3,6,11-tetrahydro-1H-indolizino[8,7-b]indole-11b(5H)-carboxylate], under setting [1], the IC50 was more than 200 µM. `COc1ccc2[nH]c3c(c2c1)C1(CCCCC1)CNC3C(=O)O` (stereo not shown) [Example 186, 2′,3′,4′,9′-tetrahydro-6′-methoxy-spiro[cyclohexane-1,4′-[4H]pyrido[3,4-b]indole]-1-carboxylic acid]: under setting [1], the IC50 is more than 200 µM. As to `COc1ccc2[nH]c3c(c2c1)CCNC3(CCC(=O)O)C(=O)O` (stereo not drawn) [Example 178, 1-(2-carboxyethyl)-6-methoxy-2,3,4,9-tetrahydro-1H-beta-carboline-1-carboxylic acid], the IC50 under setting [1] was more than 200 µM.

`COc1ccc2[nH]c3c(c2c1)CCN1COC(=O)C31` (stereo not shown) [Example 236, 8-methoxy-5,6,11,11b-tetrahydro-1H-[1,3]oxazolo[3′,4′:1,2]pyrido[3,4-b]indol-1-one]: the half-inhibitory concentration (IC50) under setting [1] is more than 200 µM. On to `COC(=O)C1(Cc2ccc(Cl)cc2)c2[nH]c3ccc(O)cc3c2CCN1C` (stereo not drawn) [Example 173, methyl 1-[4-chlorobenzyl)-6-hydroxy-2-methyl-2,3,4,9-tetrahydro-1H-beta-carboline-1-carboxylate], for which, under setting [1], the IC50 was more than 200 µM. On to `COc1ccc2[nH]c3c(c2c1)CCN(Cc1ccc(C(F)(F)F)cc1)C3C(=O)O` (stereo not drawn) [Example 141, 6-methoxy-2-[4-(trifluoromethyl)benzyl]-2,3,4,9-tetrahydro-1H-beta-carboline-1-carboxylic acid], for which the IC50 under setting [1] is 119 µM. Consider `O=C1NCCc2c1[nH]c1ccccc21` [Example 260, 1H-Pyrido[3,4-b]indol-1-one,2,3,4,9-tetrahydro- or 2,3,4,9-tetrahydro-1H-beta-carbolin-1-one], for which the IC50 under setting [1] was more than 200 µM.
